12 molecules from ChEMBL document CHEMBL1156805, “Development of (S)-N6-(2-(4-(isoquinolin-1-yl)piperazin-1-yl)ethyl)-N6-propyl-4,5,6,7-tetrahydrobenzo[d]-thiazole-2,6-diamine and its analogue as a D3 receptor preferring agonist: potent in vivo activity in Parkinson's disease animal models” (J Med Chem, 2010) can be followed below.

For experiment [1], the target named is D(2) dopamine receptor (Rattus norvegicus, UniProt P61169). As to the kind of experiment: biochemical.
Experiment [2] has as its target T1, D(2) dopamine receptor (Homo sapiens, UniProt P14416).
Experiment [3] addresses T2, D(3) dopamine receptor (Homo sapiens, UniProt P35462).
For experiment [4], the target named is T3, D(3) dopamine receptor (Rattus norvegicus, UniProt P19020). As to the kind of experiment: biochemical.
In experiment [5] the target is T3, D(3) dopamine receptor.
The target in experiment [6] is T1, D(2) dopamine receptor. Put plainly: Agonist activity at human dopamine D2L receptor expressed in CHO cells assessed as stimulation of [35S]GTPgamma binding relative to 1 mM dopamine. In kind it is functional, cell-based.
Experiment [7] has as its system Radical scavenging activity.
Description: Antioxidant activity assessed as DPPH radical scavenging activity
For experiment [8], the target named is T1, D(2) dopamine receptor. Put plainly: biochemical.
Experiment [9] deals with T2, D(3) dopamine receptor. Put plainly: biochemical.

Structures are written as SMILES.

T3 sequence (P19020 whole entry): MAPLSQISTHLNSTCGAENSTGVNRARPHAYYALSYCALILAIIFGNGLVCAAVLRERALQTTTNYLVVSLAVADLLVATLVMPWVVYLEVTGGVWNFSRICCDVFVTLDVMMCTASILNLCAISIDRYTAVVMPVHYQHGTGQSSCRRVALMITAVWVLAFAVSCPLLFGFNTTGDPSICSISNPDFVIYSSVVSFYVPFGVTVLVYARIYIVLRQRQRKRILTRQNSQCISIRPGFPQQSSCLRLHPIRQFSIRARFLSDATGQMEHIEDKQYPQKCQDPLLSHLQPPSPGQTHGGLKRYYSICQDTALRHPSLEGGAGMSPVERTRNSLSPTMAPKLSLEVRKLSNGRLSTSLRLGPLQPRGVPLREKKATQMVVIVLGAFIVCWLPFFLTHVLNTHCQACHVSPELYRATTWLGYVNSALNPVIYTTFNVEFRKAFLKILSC
T2 sequence (P35462 whole entry): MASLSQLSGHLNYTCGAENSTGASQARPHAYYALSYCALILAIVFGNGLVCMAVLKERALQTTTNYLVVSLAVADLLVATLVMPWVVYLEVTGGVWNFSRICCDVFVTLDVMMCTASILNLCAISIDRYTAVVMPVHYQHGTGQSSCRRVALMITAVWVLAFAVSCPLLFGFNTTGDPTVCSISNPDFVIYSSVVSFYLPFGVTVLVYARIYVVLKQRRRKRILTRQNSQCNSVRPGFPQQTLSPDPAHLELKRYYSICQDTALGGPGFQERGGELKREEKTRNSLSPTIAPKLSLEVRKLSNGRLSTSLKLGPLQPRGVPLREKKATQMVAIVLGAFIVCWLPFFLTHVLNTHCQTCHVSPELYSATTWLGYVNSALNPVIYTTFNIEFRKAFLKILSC
T1 sequence (P14416 whole entry): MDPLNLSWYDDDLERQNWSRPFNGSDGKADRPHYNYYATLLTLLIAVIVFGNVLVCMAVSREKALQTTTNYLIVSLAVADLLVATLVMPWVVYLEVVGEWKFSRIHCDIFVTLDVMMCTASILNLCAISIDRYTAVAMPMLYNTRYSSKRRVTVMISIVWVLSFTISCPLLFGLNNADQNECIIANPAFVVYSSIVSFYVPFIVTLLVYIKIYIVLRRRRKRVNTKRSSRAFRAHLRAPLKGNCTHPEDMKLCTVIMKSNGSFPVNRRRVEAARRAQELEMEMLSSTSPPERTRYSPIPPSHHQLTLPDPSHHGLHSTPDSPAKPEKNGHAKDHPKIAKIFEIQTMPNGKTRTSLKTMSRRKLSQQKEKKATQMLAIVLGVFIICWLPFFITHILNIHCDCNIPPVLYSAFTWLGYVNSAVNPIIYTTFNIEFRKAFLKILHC
Sequence of D(2) dopamine receptor (Rattus norvegicus, UniProt P61169) (P61169 whole entry): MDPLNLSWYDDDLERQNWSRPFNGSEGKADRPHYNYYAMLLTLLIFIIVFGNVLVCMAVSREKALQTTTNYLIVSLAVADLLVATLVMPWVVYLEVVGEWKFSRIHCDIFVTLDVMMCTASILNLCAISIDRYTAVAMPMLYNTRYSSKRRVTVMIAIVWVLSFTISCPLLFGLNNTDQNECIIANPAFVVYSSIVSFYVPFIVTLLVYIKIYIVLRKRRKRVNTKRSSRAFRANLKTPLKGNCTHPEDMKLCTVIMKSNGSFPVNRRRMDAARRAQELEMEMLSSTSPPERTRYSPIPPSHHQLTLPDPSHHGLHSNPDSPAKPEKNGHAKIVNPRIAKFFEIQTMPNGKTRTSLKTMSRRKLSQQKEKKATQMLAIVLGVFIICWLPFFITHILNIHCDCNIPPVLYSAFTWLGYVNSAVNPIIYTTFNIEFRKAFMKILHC

Regarding `CCCN(CCN1CCN(c2cccc3ncccc23)CC1)C1CCc2ccc(O)cc2C1` (stereo not given), affinity in experiment [1] was put at a Ki of 5.22 nM.
In the case of `CCCN(CCN1CCN(c2ccc(-c3ccccc3)cc2)CC1)[C@H]1CCc2nc(N)sc2C1`, the EC50 in experiment [2] was found to be 19.9 nM; in experiment [3] it was 0.085 nM.
In experiment [1], `CCCN(CCN1CCN(c2cccc3ccccc23)CC1)C1CCc2ccc(O)cc2C1` (stereo not given) registered a Ki of 13.5 nM.
Still for that read-out and setting: then `CCCN(CCN1CCN(c2ccc(-c3ccncc3)cc2)CC1)[C@H]1CCc2nc(N)sc2C1`, with 270 nM.
Consider `CCCN(CCN1CCN(c2ccnc3ccccc23)CC1)C1CCc2ccc(O)cc2C1` (stereo not given), for which the Ki in [4] turned out to be 2.65 nM; in experiment [1] it was 7.08 nM.
As to `CCCN(CCN1CCN(C(=O)c2cc3ccccc3[nH]2)CC1)[C@H]1CCc2c(O)cccc2C1`, affinity in experiment [5] was put at a Ki of 0.57 nM.
For the molecule `CCCN(CCN1CCN(c2cccc3ncccc23)CC1)[C@H]1CCc2nc(N)sc2C1`, the Emax in experiment [6] worked out at 104%. This molecule also returned an IC50 in experiment [7] of 39700 nM. For the same molecule, the affinity in experiment [1], expressed as Ki, was 57.7 nM. In addition, the figures for the EC50 in experiment [8] and in [9] were 13.5 nM and 0.528 nM, respectively.
With `CCCN(CCC)CCc1cccc2c1CC(=O)N2` [ROPINIROLE], the response in [8] was half-maximal at 304 nM (EC50).
On to `CCCN(CCN1CCN(c2ccc3ccccc3c2)CC1)C1CCc2ccc(O)cc2C1` (stereo not given), for which, in experiment [1], the Ki was found to be 8.85 nM.
For the molecule `CCCN(CCN1CCN(c2nccc3ccccc23)CC1)[C@H]1CCc2nc(N)sc2C1`, the values for the 50% effective concentration (EC50) in experiment [2] and in [9] were 116 nM and 0.52 nM, respectively. Further, the IC50 in [7] was determined as 45700 nM. The inhibitory constant (Ki) in experiment [4] turned out to be 2.23 nM; in experiment [1] it was 269 nM.
For `CCCN(CCN1CCN(c2nccc3ccccc23)CC1)C1CCc2ccc(O)cc2C1` (stereo not given), the inhibition constant Ki in experiment [1] came to 21.7 nM.
Take `CCCN(CCN1CCN(c2ccnc3ccccc23)CC1)[C@H]1CCc2nc(N)sc2C1`: the Emax in experiment [6] was found to be 118%. In experiment [1], this molecule registered a Ki of 109 nM. Besides, the EC50 in [8] worked out at 77.2 nM; in experiment [9], 0.493 nM.

For orientation: Ki means the dissociation constant of the complex between target and ligand, obtained from inhibition or displacement. A lower Ki goes with tighter binding. One may read the EC50 as the concentration needed to bring the measured effect to its halfway point. The low end stands for an effect from little substance, the high end for a need for much substance. What is called Emax is the greatest response seen or fitted, relative to the assay's reference. As usually defined, the IC50 is the midpoint of a concentration-inhibition curve. Higher therefore signals weaker potency.
